Source: US12162888B2, “Carboxamides as ubiquitin-specific protease inhibitors” (Valo Early Discovery, Inc., priority 2018, dated 2024)
Where two headings read alike, the source gives them in different places.

Target: T1, USP28 (His-tagged USP28-FL-mammalian) (Homo sapiens, UniProt Q96RU2)
T1 construct: Expression of USP28 (1-1077)-TEV-6*His (pTT5 vector) was carried out in Expi293f cells; made in house; host or cells: Expi293F cells (pTT5 vector)
T1 sequence (Q96RU2 1-1077): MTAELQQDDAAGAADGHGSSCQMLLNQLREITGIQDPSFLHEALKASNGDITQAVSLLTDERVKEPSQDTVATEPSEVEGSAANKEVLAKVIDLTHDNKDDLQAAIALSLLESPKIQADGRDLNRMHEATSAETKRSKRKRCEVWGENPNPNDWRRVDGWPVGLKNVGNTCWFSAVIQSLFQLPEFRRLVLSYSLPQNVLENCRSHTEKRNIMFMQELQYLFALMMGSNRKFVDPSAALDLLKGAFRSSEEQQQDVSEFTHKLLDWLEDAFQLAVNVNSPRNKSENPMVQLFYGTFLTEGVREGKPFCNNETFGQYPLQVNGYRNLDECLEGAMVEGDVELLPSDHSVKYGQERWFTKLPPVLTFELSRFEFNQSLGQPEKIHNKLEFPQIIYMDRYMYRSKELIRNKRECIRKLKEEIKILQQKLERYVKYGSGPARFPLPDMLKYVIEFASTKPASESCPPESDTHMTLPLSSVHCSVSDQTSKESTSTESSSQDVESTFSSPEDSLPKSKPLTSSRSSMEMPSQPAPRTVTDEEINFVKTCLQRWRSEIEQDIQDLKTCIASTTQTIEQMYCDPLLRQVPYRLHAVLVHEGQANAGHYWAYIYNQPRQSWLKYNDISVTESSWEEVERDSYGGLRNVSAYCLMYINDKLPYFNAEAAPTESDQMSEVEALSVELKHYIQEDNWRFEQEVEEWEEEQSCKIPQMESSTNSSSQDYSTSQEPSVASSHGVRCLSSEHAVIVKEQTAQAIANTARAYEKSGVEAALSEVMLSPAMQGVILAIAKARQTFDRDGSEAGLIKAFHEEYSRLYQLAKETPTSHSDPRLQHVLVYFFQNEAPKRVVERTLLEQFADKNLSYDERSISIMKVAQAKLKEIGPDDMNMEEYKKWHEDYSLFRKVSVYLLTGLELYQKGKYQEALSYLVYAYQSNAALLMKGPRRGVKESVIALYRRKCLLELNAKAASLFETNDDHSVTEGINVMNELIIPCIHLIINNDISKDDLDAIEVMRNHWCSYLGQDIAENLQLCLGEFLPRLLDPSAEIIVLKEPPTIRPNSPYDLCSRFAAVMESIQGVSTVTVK
Experiment: Ubiquitin-Rhodamine 110 Assay for USP28 Activity, Example A-1(a)
Format: biochemical
Outline: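 IC50s were fitted with a 4-parameter logistic to percent inhibition relative to no-enzyme and DMSO controls, using Rhodamine 110 fluorescence (485/535 nm) released from 25 nM Ub-Rh110. The enzyme was Expi293F-expressed USP28-FL-His at […], preincubated 30 min with compound (10-point, 25 μM top) in Tris pH 8.0 buffer containing BGG and Triton X-100. Substrate turnover ran 45 min at room temperature and was stopped with 10 mM citric acid.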

[1] = biochemical IC50 range, Ubiquitin-Rhodamine 110 assay, read-out: USP28 A-1(a)
[2] = Ubiquitin-Rhodamine 110 biochemical assay, read-out: USP28 A-1(a) IC50 range

SMILES | IC50 [1] | IC50 [2]
CNc1ncc(C(=O)N[C@H]2COc3cc(N4CCNCC4)ccc3C2)c2[nH]ccc12 [Example 674, 4-(methylamino)-N-[(3R)-7-(piperazin-1-yl)-3,4-dihydro-2H-1-benzopyran-3-yl]-1Hpyrrolo[3,2-c]pyridine-7-carboxamide] | 200 to 2000 nM | 
Cc1ccc2c(N)c(C(=O)N[C@H]3CCc4nc(N5C[C@H](N)[C@@]6(C5)OCC[C@H]6C)ccc4C3)sc2n1 [Example 510, 3-amino-N-[(6S)-2-[(4R,5R,9S)-9-amino-4-methyl-1-oxa-7-azaspiro[4.4]nonan-7-yl]-5,6,7,8-tetrahydroquinolin-6-yl]-6-methylthieno[2,3-b]pyridine-2-carboxamide] |  | 50 to 200 nM
CO[C@]12CCN[C@H]1CN(c1ccc3c(c1)OC[C@H](NC(=O)c1sc4nc(C)ccc4c1N)C3)C2 [Example 666, N-[(3R)-7-[(3aS,6aS)-3a-methoxyoctahydropyrrolo[2,3-c]pyrrol-5-yl}-3,4-dihydro-2H-1-benzopyran-3-yl]-3-amino-6-methylthicno[2,3-b]pyridine-2-carboxamide] | 1 to 50 nM | 
Cc1ccc2c(N)c(C(=O)NC3COc4cc(N5CC(N)C(COC(F)(F)F)C5)ccc4C3)sc2n1 [Example 672, 3-amino-N-[(3R)-7-[(3R,4R)-3-amino-4-[(trifluoromethoxy)methyl]pyrrolidin-1-yl]-3,4-dihydro-2H-1-benzopyran-3-yl]-6-methylthicno[2,3-b]pyridine-2-carboxamide] | 50 to 200 nM | 
CCO[C@H]1CN(c2ccc3c(n2)CC[C@H](NC(=O)c2sc4nc(C)cnc4c2N)C3)C[C@@H]1N [Example 520, 7-amino-N-[(6S)-2-[(3S,4S)-3-amino-4-ethoxypyrrolidin-1-yl]-5,6,7,8-tetrahydroquinolin-6-yl]-3-methylthieno[2,3-b]pyrazine-6-carboxamide] |  | 200 to 2000 nM
CO[C@@H]1CCCN(c2cc(F)c3c(c2)OC[C@H](NC(=O)c2sc4nc(C)ccc4c2N)C3)C[C@@H]1N [Example 692, 3-amino-N-[(3R)-7-[(3S,4R)-3-amino-4-methoxyazepan-1-yl]-5-fluoro-3,4-dihydro-2H-1-benzopyran-3-yl]-6-methylthieno[2,3-b]pyridine-2-carboxamide] | 1 to 50 nM | 
Cc1ccc2c(N)c(C(=O)N[C@H]3COc4cc(N5C[C@@H](N)[C@]6(C5)OCC[C@H]6C)ccc4C3)sc2n1 (single isomer, unassigned) [Example 612-4] | 1 to 50 nM | 
CN[C@H]1CN(c2ccc3c(n2)CC[C@H](NC(=O)c2sc4nc(C)ccc4c2N)C3)C[C@]12CCCCO2 [Example 502, 3-amino-6-methyl-N-[(6S)-2-[(4S,5R)-4-(methylamino)-6-oxa-2-azaspiro[4.5]decan-2-yl]-5,6,7,8-tetrahydroquinolin-6-yl]thieno[2,3-b]pyridine-2-carboxamide] |  | 50 to 200 nM
Cc1ccc2c(N)c(C(=O)N[C@H]3CCc4nc(N5C[C@@H](N)CC(F)(F)C5)ccc4C3)sc2n1 [Example 518, 3-amino-N-[(6S)-2-[(5S)-5-amino-3,3-difluoropiperidin-1-yl]-5,6,7,8-tetrahydroquinolin-6-yl]-6-methylthieno[2,3-b]pyridine-2-carboxamide] |  | 1 to 50 nM
CN[C@@H]1CN(c2ccc3c(n2)CC[C@H](NC(=O)c2sc4nc(C)ccc4c2N)C3)C[C@@]12CCCCO2 [Example 503, 3-amino-6-methyl-N-[(6S)-2-[(4R,5S)-4-(methylamino)-6-oxa-2-azaspiro[4.5]decan-2-yl]-5,6,7,8-tetrahydroquinolin-6-yl]thieno[2,3-b]pyridine-2-carboxamide] |  | 50 to 200 nM
Cc1ccc2c(N)c(C(=O)NC3COc4cc(N5CC6CCNCC65)cc(F)c4C3)sc2n1 [Example 664, 3-amino-N-[(3R)-7-[(1S,6R)-3,8-diazabicyclo[4.2.0]octan-8-yl]-5-fluoro-3,4-dihydro-2H-1-benzopyran-3-yl]-6-mcthylthicno[2,3-b]pyridinc-2-carboxamide] | 1 to 50 nM | 
Cc1ccc2c(N)c(C(=O)N[C@H]3CCc4nc(N5C[C@@H](N)[C@]6(C5)OCC[C@@H]6C)ccc4C3)sc2n1 [Example 511, 3-amino-N-[(6S)-2-[(4S,5S,9R)-9-amino-4-methyl-1-oxa-7-azaspiro[4.4]nonan-7-yl]-5,6,7,8-tetrahydroquinolin-6-yl]-6-methylthieno[2,3-b]pyridine-2-carboxamide] |  | 200 to 2000 nM
Cc1ccc2c(N)c(C(=O)N[C@H]3COc4cc(OC[C@H]5CNCC5(F)F)ccc4C3)sc2n1 [Example 686, 3-amino-N-[(3R)-7-{[(3R)-4,4-difluoropyrrolidin-3-yl]methoxy}-3,4-dihydro-2H-1-benzopyran-3-yl]-6-methylthieno[2,3-b]pyridine-2-carboxamide] | 1 to 50 nM | 
COC1CCCN(c2cc(F)c3c(c2)OCC(NC(=O)c2sc4nc(C)ccc4c2N)C3)CC1N [Example 690, 3-amino-N-[(3R)-7-[(3S,4S)-3-amino-4-methoxyazcpan-1-yl]-5-fluoro-3,4-dihydro-2H-1-benzopyran-3-yl]-6-methylthieno[2,3-b]pyridine-2-carboxamide] | 1 to 50 nM | 
Cc1ccc2c(N)c(C(=O)N[C@H]3CCc4nc(N5C[C@H](COC(F)F)[C@H](N)C5)ccc4C3)sc2n1 [Example 517, 3-amino-N-[(6S)-2-[(3S,4S)-3-amino-4-[(difluoromethoxy)methyl]pyrrolidin-1-yl]-5,6,7,8-tetrahydroquinolin-6-yl]-6-methylthieno[2,3-b]pyridine-2-carboxamide] |  | 50 to 200 nM
COC[C@@H]1CN(c2ccc3c(n2)CC[C@H](NC(=O)c2sc4cnccc4c2N)C3)C[C@@H]1N [Example 500, 3-amino-N-[(6S)-2-[(3R,4R)-3-amino-4-(methoxymethyl)pyrrolidin-1-yl]-5,6,7,8-tetrahydroquinolin-6-yl]thieno[2,3-c]pyridine-2-carboxamide] |  | > 2000 nM
Cc1ccc2c(N)c(C(=O)N[C@H]3COc4nc(N5C[C@@H](CF)[C@@H](N)C5)ccc4C3)sc2n1 [Example 539, 3-amino-N-[(3R)-7-[(3R,4R)-3-amino-4-(fluoromethyl)pyrrolidin-1-yl]-2H,3H,4H-pyrano[2,3-b]pyridin-3-yl]-6-methylthieno[2,3-b]pyridine-2-carboxamide] | 50 to 200 nM | 
CO[C@H]1CCCN(c2ccc3c(n2)CC[C@H](NC(=O)c2sc4nc(C)ccc4c2N)C3)C[C@H]1N [Example 501, 3-amino-N-[(6S)-2-[(3R,4S)-3-amino-4-methoxyazepan-1-yl]-5,6,7,8-tetrahydroquinolin-6-yl]-6-methylthieno[2,3-b]pyridine-2-carboxamide] |  | 200 to 2000 nM
CCn1cc(Cl)c2cc(C(=O)N[C@H]3COc4cc(N5C[C@H](OC)[C@@H](N)C5)ccc4C3)nnc21 [Example 696, N-[(3R)-7-[(3S,4S)-3-amino-4-methoxypyrrolidin-1-yl]-3,4-dihydro-2H-1-benzopyran-3-yl]-5-chloro-7-ethyl-7Hpyrrolo[2,3-c]pyridazine-3-carboxamide] | 200 to 2000 nM | 
Cc1ccc2c(N)c(C(=O)N[C@H]3CCc4nc(N5C[C@H](N)[C@@]6(C5)OCC[C@@H]6C)ccc4C3)sc2n1 [Example 509, 3-amino-N-[(6S)-2-[(4S,5R,9S)-9-amino-4-methyl-1-oxa-7-azaspiro[4.4]nonan-7-yl]-5,6,7,8-tetrahydroquinolin-6-yl]-6-methylthieno[2,3-b]pyridine-2-carboxamide] |  | 50 to 200 nM
CNc1ncc(C(=O)N[C@H]2COc3cc(N4CCNCC4)ccc3C2)c2c1CCCN2 [Example 677, 5-(methylamino)-N-[(3R)-7-(piperazin-1-yl)-3,4-dihydro-2H-1-benzopyran-3-yl]-1,2,3,4-tetrahydro-1,6-naphthyridine-8-carboxamide] | 200 to 2000 nM | 
Cc1ccc2c(N)c(C(=O)NC3COc4cc(N5CC6NCC(F)(F)C6C5)ccc4C3)sc2n1 [Example 654, N-[(3R)-7-[(3aS,6aS)-3,3-difluorooctahydropyrrolo[3,4-b]pyrrol-5-yll-3,4-dihydro-2H-1-benzopyran-3-yl]-3-amino-6-methylthieno[2,3-b]pyridine-2-carboxamide] | 1 to 50 nM | 
